Series [1] concerns Candida albicans. Briefly: Antifungal activity against Candida albicans SKF-2270 after 24 hrs by broth microdilution method. Type of series: functional. The following applies: read-out: MIC. For orientation: Broth dilution looks for growth in wells or tubes with falling amounts of substance.
For series [2], the system named is Staphylococcus aureus. Nature of the series: Antibacterial activity against vancomycin-intermediate resistant Staphylococcus aureus clinical isolate in presence of 30% bovine serum after 24 hrs by broth microdilution method. It counts as functional.
Series [3] concerns Escherichia coli. Briefly: Antibacterial activity against Escherichia coli SKF-12140 after 24 hrs by broth microdilution method. It counts as functional. The settings on record: read-out: MIC.
Series [4] relates to Streptococcus pyogenes. Nature of the series: Antibacterial activity against Streptococcus pyogenes C203 after 24 hrs by broth microdilution method. The settings on record: C203, 24 h, read-out: MIC. Type of series: functional.
A short description of series [5]: Toxicity assessed as hemolysis in erythrocytes at 1600 mg/L. The settings on record: human, read-out: Activity. Type of series: cell-based, Erythrocyte.
Series [6] has as its system Enterococcus faecium. Nature of the series: Antibacterial activity against Enterococcus faecium after 24 hrs by broth microdilution method. It counts as functional. The settings on record: read-out: MIC.
The subject of series [7] is Enterococcus faecalis. Briefly: Antibacterial activity against vancomycin-resistant Enterococcus faecalis in presence of 30% bovine serum after 24 hrs by broth microdilution method. Type of series: functional.
Series [8] is described as follows: Toxicity assessed as hemolysis in erythrocytes at 800 mg/L. It counts as cell-based, Erythrocyte. The following applies: human, read-out: Activity.
Series [9] concerns Staphylococcus aureus. Nature of the series: Antibacterial activity against Staphylococcus aureus Smith in presence of 30% bovine serum after 24 hrs by broth microdilution method. It counts as functional.
Series [10] is described as follows: Toxicity assessed as hemolysis in erythrocytes at 200 mg/L. The following applies: human, read-out: Activity. Type of series: cell-based, Erythrocyte.
Series [11] relates to Enterococcus faecium. Briefly: Antibacterial activity against vancomycin A-resistant Enterococcus faecium clinical isolate after 24 hrs by broth microdilution method. Type of series: functional. The settings on record: read-out: MIC.
The subject of series [12] is Staphylococcus aureus. Briefly: Antibacterial activity against Staphylococcus aureus Smith after 24 hrs by broth microdilution method. Type of series: functional. The following applies: read-out: MIC.
Series [13] concerns Staphylococcus aureus. Briefly: Antibacterial activity against vancomycin-intermediate resistant Staphylococcus aureus clinical isolate after 24 hrs by broth microdilution method. It counts as functional.
Series [14] in a line: Toxicity assessed as hemolysis in erythrocytes at 100 mg/L. Type of series: cell-based, Erythrocyte. The following applies: human, read-out: Activity.
The test system of series [15] is Enterococcus faecium. Briefly: Antibacterial activity against vancomycin A-resistant Enterococcus faecium clinical isolate in presence of 30% bovine serum after 24 hrs by broth microdilution method. It counts as functional.
Series [16] in a line: Toxicity assessed as hemolysis in erythrocytes at 400 mg/L. The settings on record: human, read-out: Activity. Type of series: cell-based, Erythrocyte.
For series [17], the system named is Enterococcus faecalis. Briefly: Antibacterial activity against vancomycin A-resistant Enterococcus faecalis after 24 hrs by broth microdilution method. Type of series: functional. The following applies: read-out: MIC.
Series [18] concerns Staphylococcus aureus. Briefly: Antibacterial activity against methicillin-resistant Staphylococcus aureus clinical isolate after 24 hrs by broth microdilution method. Type of series: functional. The following applies: read-out: MIC.
Series [19] deals with Enterococcus faecalis. Nature of the series: Antibacterial activity against Enterococcus faecalis after 24 hrs by broth microdilution method. It counts as functional. The following applies: read-out: MIC.
Series [20] relates to Staphylococcus aureus. Briefly: Antibacterial activity against methicillin-resistant and vancomycin-intermediate resistant Staphylococcus aureus clinical isolate after 24 hrs by broth microdilution method. Type of series: functional. The settings on record: read-out: MIC.

In brackets after ≈: the same amount, converted by molar mass.

With `Cc1ccccc1CC(=O)N[C@@H](CC(N)=O)C(=O)NC[C@@H]1C(=O)N[C@H](c2ccc(O)cc2)C(=O)N[C@H](CCCN)C(=O)N[C@H](C(C)C)C(=O)N[C@@H](c2ccc(O)cc2)C(=O)N[C@H](c2ccc(O)cc2)C(=O)N[C@@H]([C@@H](C)O)C(=O)N[C@@H](Cc2ccccc2)C(=O)N[C@H](CCCN)C(=O)N[C@@H](c2ccc(O[C@H]3O[C@H](CO)[C@@H](O)[C@H](O)[C@@H]3O[C@H]3O[C@H](CO)[C@@H](O)[C@H](O)[C@@H]3O)cc2)C(=O)N[C@H]([C@@H](C)O)C(=O)N[C@@H](c2ccc(O)cc2)C(=O)NCC(=O)N[C@@H](CC(C)C)C(=O)N[C@H](C)C(=O)N[C@@H](c2ccc(O)c(Cl)c2)C(=O)O[C@@H]1C(N)=O`, the MIC in series [1] was greater than 128 µg/mL; in series [2] it was 1 µg/mL; in [3] it was greater than 128 µg/mL; in series [4], no more than 0.125 µg/mL; in [6] it was 0.5 µg/mL (≈ 0.195 µM); in series [7], 0.5 µg/mL. For the same compound, the MIC in series [9] is 0.25 µg/mL; in series [11], 0.5 µg/mL (≈ 0.195 µM); in series [12] it was no more than 0.125 µg/mL; in [13], 1 µg/mL (≈ 0.39 µM); in series [15], 1 µg/mL; in series [17], 0.25 µg/mL (≈ 0.0976 µM). Moreover, the MIC is no more than 0.125 µg/mL in series [18], 0.5 µg/mL (≈ 0.195 µM) in series [19] and 2 µg/mL (≈ 0.781 µM) in [20]. In addition, in [5], the hemolysis at 1600 mg/L turned out to be 5%. The hemolysis at 800 mg/L in [8] amounted to 2%. Moreover, the hemolysis at 200 mg/L in series [10] amounted to 1%. Moreover, the hemolysis at 100 mg/L in series [14] turned out to be 1%. In series [16], the hemolysis at 400 mg/L is 1%.

`Cc1ccccc1C(=O)N[C@@H](CC(N)=O)C(=O)NC[C@@H]1C(=O)N[C@H](c2ccc(O)cc2)C(=O)N[C@H](CCCN)C(=O)N[C@H](C(C)C)C(=O)N[C@@H](c2ccc(O)cc2)C(=O)N[C@H](c2ccc(O)cc2)C(=O)N[C@@H]([C@@H](C)O)C(=O)N[C@@H](Cc2ccccc2)C(=O)N[C@H](CCCN)C(=O)N[C@@H](c2ccc(O[C@H]3O[C@H](CO)[C@@H](O)[C@H](O)[C@@H]3O[C@H]3O[C@H](CO)[C@@H](O)[C@H](O)[C@@H]3O)cc2)C(=O)N[C@H]([C@@H](C)O)C(=O)N[C@@H](c2ccc(O)cc2)C(=O)NCC(=O)N[C@@H](CC(C)C)C(=O)N[C@H](C)C(=O)N[C@@H](c2ccc(O)c(Cl)c2)C(=O)O[C@@H]1C(N)=O`: the MIC is greater than 128 µg/mL in [1]; 4 µg/mL in series [2]; greater than 128 µg/mL in [3]; no more than 0.125 µg/mL in series [4]; 2 µg/mL (≈ 0.785 µM) in [6]; 2 µg/mL in [7]. In addition, the MIC in [9] is 1 µg/mL; in series [11], 4 µg/mL (≈ 1.57 µM); in series [12] it was 1 µg/mL (≈ 0.392 µM); in series [13], 8 µg/mL (≈ 3.14 µM); in series [15], no more than 0.125 µg/mL; in [17] it was 2 µg/mL (≈ 0.785 µM). The MIC in series [18] was 1 µg/mL (≈ 0.392 µM); in series [19], 2 µg/mL (≈ 0.785 µM); in series [20] it was 8 µg/mL (≈ 3.14 µM). Besides, in series [5], the hemolysis at 1600 mg/L amounted to 93%. For the same compound, the hemolysis at 800 mg/L in series [8] came to 94%. The hemolysis at 200 mg/L in series [10] is 17%. For the same compound, the hemolysis at 100 mg/L in series [14] came out at 2%. The hemolysis at 400 mg/L in [16] stood at 83%.

For `CC/C=C/C=C\CC(=O)N[C@@H](CC(N)=O)C(=O)NC[C@@H]1C(=O)N[C@H](c2ccc(O)cc2)C(=O)N[C@H](CCCN)C(=O)N[C@H](C(C)C)C(=O)N[C@@H](c2ccc(O)cc2)C(=O)N[C@H](c2ccc(O)cc2)C(=O)N[C@@H]([C@@H](C)O)C(=O)N[C@@H](Cc2ccccc2)C(=O)N[C@H](CCCN)C(=O)N[C@@H](c2ccc(O[C@H]3O[C@H](CO)[C@@H](O)[C@H](O)[C@@H]3O[C@H]3O[C@H](CO)[C@@H](O)[C@H](O)[C@@H]3O)cc2)C(=O)N[C@H]([C@@H](C)O)C(=O)N[C@@H](c2ccc(O)cc2)C(=O)NCC(=O)N[C@@H](CC(C)C)C(=O)N[C@H](C)C(=O)N[C@@H](c2ccc(O)c(Cl)c2)C(=O)O[C@@H]1C(N)=O`, the MIC in [1] was greater than 128 µg/mL; in series [2], 2 µg/mL; in series [3], greater than 128 µg/mL; in series [4] it was no more than 0.125 µg/mL; in series [6] it was 0.5 µg/mL (≈ 0.196 µM); in series [7] it was 0.5 µg/mL. The MIC is 0.5 µg/mL in series [9]; 0.25 µg/mL (≈ 0.098 µM) in series [11]; 0.25 µg/mL (≈ 0.098 µM) in [12]; 1 µg/mL (≈ 0.392 µM) in series [13]; 1 µg/mL in series [15]; 0.25 µg/mL (≈ 0.098 µM) in series [17]. For the same compound, the MIC came out at 0.25 µg/mL (≈ 0.098 µM) in series [18], 0.5 µg/mL (≈ 0.196 µM) in series [19] and 2 µg/mL (≈ 0.784 µM) in series [20]. Further, in series [8], the hemolysis at 800 mg/L stood at 96%. Besides, in series [10], the hemolysis at 200 mg/L is 45%. Further, the hemolysis at 100 mg/L in [14] amounted to 38%. Also, in series [16], the hemolysis at 400 mg/L was determined as 51%.

With `CCCCC(CC)C(=O)N[C@@H](CC(N)=O)C(=O)NC[C@@H]1C(=O)N[C@H](c2ccc(O)cc2)C(=O)N[C@H](CCCN)C(=O)N[C@H](C(C)C)C(=O)N[C@@H](c2ccc(O)cc2)C(=O)N[C@H](c2ccc(O)cc2)C(=O)N[C@@H]([C@@H](C)O)C(=O)N[C@@H](Cc2ccccc2)C(=O)N[C@H](CCCN)C(=O)N[C@@H](c2ccc(O[C@H]3O[C@H](CO)[C@@H](O)[C@H](O)[C@@H]3O[C@H]3O[C@H](CO)[C@@H](O)[C@H](O)[C@@H]3O)cc2)C(=O)N[C@H]([C@@H](C)O)C(=O)N[C@@H](c2ccc(O)cc2)C(=O)NCC(=O)N[C@@H](CC(C)C)C(=O)N[C@H](C)C(=O)N[C@@H](c2ccc(O)c(Cl)c2)C(=O)O[C@@H]1C(N)=O` (some centres undefined), the MIC is greater than 128 µg/mL in series [1]; 2 µg/mL in series [2]; greater than 128 µg/mL in [3]; no more than 0.125 µg/mL in series [4]; 0.5 µg/mL (≈ 0.196 µM) in [6]; 1 µg/mL in series [7]. Also, the MIC in series [9] amounted to 0.5 µg/mL; in series [11], 0.5 µg/mL (≈ 0.196 µM); in series [12], 0.25 µg/mL (≈ 0.0978 µM); in [13], 1 µg/mL (≈ 0.391 µM); in [15] it was 1 µg/mL; in series [17], 0.25 µg/mL (≈ 0.0978 µM). The MIC in series [18] is 0.25 µg/mL (≈ 0.0978 µM); in [19] it was 0.5 µg/mL (≈ 0.196 µM); in [20], 2 µg/mL (≈ 0.782 µM). Besides, the hemolysis at 1600 mg/L in series [5] came out at 83%. The hemolysis at 800 mg/L in series [8] stood at 73%. Moreover, the hemolysis at 200 mg/L in [10] came to 4%. Moreover, the hemolysis at 100 mg/L in series [14] turned out to be 0%. Further, the hemolysis at 400 mg/L in series [16] is 8%.

One may read the MIC as the lowest concentration found to suppress growth.

Source of the values: ChEMBL document CHEMBL1145390, “Synthesis and preliminary biological characterization of new semisynthetic derivatives of ramoplanin” (J Med Chem, 2007).
